Key:
Type in all cases: in vivo
[1] = tested on: morningglory (Ipomea lacunosa or Ipomea hederacea); test: post-emergence herbicidal activity, morningglory; settings: Ipomoea, 1 Kg/Ha, about fourteen days, read-out: post-emergence herbicidal activity (% control) IPOSS
Description: (§1) This example sets forth the methods of herbicidal testing conducted on the specific compounds set forth below. Specifically, the compounds referenced below were tested for pre- and post-emergence herbicidal activity using a variety of crops and weeds. The test plants include, but are not limited to, soybean (Glycine max -- var. Winchester), field corn (Zea mays var. Pioneer 3732), wheat (Triticum aestivum var. Lew), morningglory (Ipomea lacunosa or Ipomea hederacea), velvetleaf (Abutilon theophrasti), green foxtail (Setaria viridis), Johnsongrass (Sorghum halepense), blackgrass (Aloepecurus myosuroides), common chickweed (Stellaria media), and common cocklebur (Xanthium strumarium L.).
(§2) In the post-emergence test, seeds of the plant species named above were planted in flats containing the appropriate soil mixture where they were maintained to allow the seeds to germinate. When the plants in these flats reached the proper stage of growth, flats for the pre-emergence tests were planted in a like manner. The flats containing the post-emergence and pre-emergence test plant species were then sprayed with an appropriately concentrated water/acetone solution of test compound. Once treated the flats were maintained, along with untreated controls, for about fourteen days. All treated plants were then examined for phytotoxicity, which was expressed as percent control where 0 is no effect and 100 is complete control. Effective rates of application for the compounds of the present invention range from 0.001 to 3 kg/ha, more likely from […] to 1 Kg/ha.
(§3) Herbicidal activity data at selected application rates are in Tables 4 and 5. The test compounds are identified by numbers correspond to those in Table 1.
(§4) SOY is soybean, WHT is wheat, CRN is corn, ABUTH is velvetleaf, IPOSS is
(§5) morningglory, STEME is chickweed, XANPE is cocklebur, ALOMY is blackgrass,
(§6) Rate of application of test compound is 1 Kg/Ha. The definitions as shown under Table 4 apply to Table 5.

[2] = tested on: common chickweed (Stellaria media); test: pre-emergence herbicidal activity, chickweed; settings: 1 kg/Ha, about fourteen days, read-out: pre-emergence herbicidal activity (% control) STEME
Description: as §1, §2, §3
(§7) Rate of application of test compound is 1 kg/Ha
as §4
(§8) morningglory, STEME is chickweed, XANPE is cocklebur, ALOMY is blackgrass, […]

[3] = tested on: common cocklebur (Xanthium strumarium L.); test: post-emergence herbicidal activity, cocklebur; settings: 1 Kg/Ha, about fourteen days, read-out: post-emergence herbicidal activity (% control) XANPE
Description: as §1, §2, §3, §4, §5, §6

[4] = tested on: wheat (Triticum aestivum var. Lew); test: pre-emergence herbicidal activity, wheat; settings: 1 kg/Ha, about fourteen days, read-out: pre-emergence herbicidal activity (% control) WHT
Description: as §1, §2, §3, §7, §4, §8

[5] = tested on: field corn (Zea mays var. Pioneer 3732); test: post-emergence herbicidal activity, corn; settings: 1 Kg/Ha, about fourteen days, read-out: post-emergence herbicidal activity (% control) CRN
Description: as §1, §2, §3, §4, §5, §6

[6] = tested on: velvetleaf (Abutilon theophrasti); test: post-emergence herbicidal activity, velvetleaf; settings: 1 Kg/Ha, about fourteen days, read-out: post-emergence herbicidal activity (% control) ABUTH
Description: as §1, §2, §3, §4, §5, §6

[7] = tested on: soybean (Glycine max -- var. Winchester); test: post-emergence herbicidal activity, soybean; settings: 1 Kg/Ha, about fourteen days, read-out: post-emergence herbicidal activity (% control) SOY
Description: as §1, §2, §3, §4, §5, §6

[8] = tested on: common cocklebur (Xanthium strumarium L.); test: pre-emergence herbicidal activity, cocklebur; settings: 1 kg/Ha, about fourteen days, read-out: pre-emergence herbicidal activity (% control) XANPE
Description: as §1, §2, §3, §7, §4, §8

[9] = tested on: green foxtail (Setaria viridis); test: post-emergence herbicidal activity, green foxtail; settings: 1 Kg/Ha, about fourteen days, read-out: post-emergence herbicidal activity (% control) SETVI
Description: as §1, §2, §3, §4, §5, §6

[10] = tested on: field corn (Zea mays var. Pioneer 3732); test: pre-emergence herbicidal activity, corn; settings: 1 kg/Ha, about fourteen days, read-out: pre-emergence herbicidal activity (% control) CRN
Description: as §1, §2, §3, §7, §4, §8

[11] = tested on: wheat (Triticum aestivum var. Lew); test: post-emergence herbicidal activity, wheat; settings: 1 Kg/Ha, about fourteen days, read-out: post-emergence herbicidal activity (% control) WHT
Description: as §1, §2, §3, §4, §5, §6

[12] = tested on: blackgrass (Aloepecurus myosuroides); test: pre-emergence herbicidal activity, blackgrass; settings: Alopecurus myosuroides, 1 kg/Ha, about fourteen days, read-out: pre-emergence herbicidal activity (% control) ALOMY
Description: as §1, §2, §3, §7, §4, §8

[13] = tested on: Johnsongrass (Sorghum halepense); test: post-emergence herbicidal activity, johnsongrass; settings: 1 Kg/Ha, about fourteen days, read-out: post-emergence herbicidal activity (% control) SORHA
Description: as §1, §2, §3, §4, §5, §6

[14] = tested on: soybean (Glycine max -- var. Winchester); test: pre-emergence herbicidal activity, soybean; settings: 1 kg/Ha, about fourteen days, read-out: pre-emergence herbicidal activity (% control) SOY
Description: as §1, §2, §3, §7, §4, §8

[15] = tested on: green foxtail (Setaria viridis); test: pre-emergence herbicidal activity, green foxtail; settings: 1 kg/Ha, about fourteen days, read-out: pre-emergence herbicidal activity (% control) SETVI
Description: as §1, §2, §3, §7, §4, §8

[16] = tested on: morningglory (Ipomea lacunosa or Ipomea hederacea); test: pre-emergence herbicidal activity, morningglory; settings: Ipomoea, 1 kg/Ha, about fourteen days, read-out: pre-emergence herbicidal activity (% control) IPOSS
Description: as §1, §2, §3, §7, §4, §8

[17] = tested on: Johnsongrass (Sorghum halepense); test: pre-emergence herbicidal activity, johnsongrass; settings: 1 kg/Ha, about fourteen days, read-out: pre-emergence herbicidal activity (% control) SORHA
Description: as §1, §2, §3, §7, §4, §8

[18] = tested on: velvetleaf (Abutilon theophrasti); test: pre-emergence herbicidal activity, velvetleaf; settings: 1 kg/Ha, about fourteen days, read-out: pre-emergence herbicidal activity (% control) ABUTH
Description: as §1, §2, §3, §7, §4, §8

Compound: CCOC(=O)CN1Cc2c(-n3c(=O)cc(C(F)(F)F)n(C)c3=O)ccc(Cl)c2C1=O [Compound 7]
- activity at 1000 g/ha [1]: 40%
- activity at 1000 g/ha [2]: 60%
- activity at 1000 g/ha [3]: 60%
- activity at 1000 g/ha [4]: 30%
- activity at 1000 g/ha [5]: 40%
- activity at 1000 g/ha [6]: 80%
- activity at 1000 g/ha [7]: 60%
- activity at 1000 g/ha [8]: 50%
- activity at 1000 g/ha [9]: 60%
- activity at 1000 g/ha [10]: 70%
- activity at 1000 g/ha [11]: 20%
- activity at 1000 g/ha [12]: 40%
- activity at 1000 g/ha [13]: 40%
- activity at 1000 g/ha [14]: 70%
- activity at 1000 g/ha [15]: 70%
- activity at 1000 g/ha [16]: 80%
- activity at 1000 g/ha [17]: 55%
- activity at 1000 g/ha [18]: 100%

Compound: C#CCN1Cc2c(-n3c(=O)cc(C(F)(F)F)n(C)c3=O)ccc(Cl)c2C1=O [Compound 8]
- activity at 1000 g/ha [1]: 100%
- activity at 1000 g/ha [2]: 100%
- activity at 1000 g/ha [3]: 100%
- activity at 1000 g/ha [4]: 100%
- activity at 1000 g/ha [5]: 100%
- activity at 1000 g/ha [6]: 100%
- activity at 1000 g/ha [7]: 100%
- activity at 1000 g/ha [8]: 100%
- activity at 1000 g/ha [9]: 100%
- activity at 1000 g/ha [10]: 100%
- activity at 1000 g/ha [11]: 100%
- activity at 1000 g/ha [12]: 100%
- activity at 1000 g/ha [13]: 100%
- activity at 1000 g/ha [14]: 100%
- activity at 1000 g/ha [15]: 100%
- activity at 1000 g/ha [16]: 100%
- activity at 1000 g/ha [17]: 100%
- activity at 1000 g/ha [18]: 100%

Compound: CN1Cc2c(-n3c(=O)cc(C(F)(F)F)n(C)c3=O)ccc(Cl)c2C1=O [Compound 9]
- activity at 1000 g/ha [1]: 90%
- activity at 1000 g/ha [2]: 100%
- activity at 1000 g/ha [3]: 70%
- activity at 1000 g/ha [4]: 100%
- activity at 1000 g/ha [5]: 50%
- activity at 1000 g/ha [6]: 100%
- activity at 1000 g/ha [7]: 100%
- activity at 1000 g/ha [8]: 100%
- activity at 1000 g/ha [9]: 70%
- activity at 1000 g/ha [10]: 100%
- activity at 1000 g/ha [11]: 50%
- activity at 1000 g/ha [12]: 100%
- activity at 1000 g/ha [13]: 50%
- activity at 1000 g/ha [14]: 100%
- activity at 1000 g/ha [15]: 100%
- activity at 1000 g/ha [16]: 100%
- activity at 1000 g/ha [17]: 100%
- activity at 1000 g/ha [18]: 100%

Compound: Cn1c(C(F)(F)F)cc(=O)n(-c2ccc(Cl)c3c2CN(Cc2ccccc2)C3=O)c1=O [Compound 10]
- activity at 1000 g/ha [1]: 40%
- activity at 1000 g/ha [2]: 100%
- activity at 1000 g/ha [3]: 50%
- activity at 1000 g/ha [4]: 70%
- activity at 1000 g/ha [5]: 60%
- activity at 1000 g/ha [6]: 100%
- activity at 1000 g/ha [7]: 65%
- activity at 1000 g/ha [8]: 80%
- activity at 1000 g/ha [9]: 60%
- activity at 1000 g/ha [10]: 90%
- activity at 1000 g/ha [11]: 40%
- activity at 1000 g/ha [12]: 80%
- activity at 1000 g/ha [13]: 40%
- activity at 1000 g/ha [14]: 80%
- activity at 1000 g/ha [15]: 100%
- activity at 1000 g/ha [16]: 80%
- activity at 1000 g/ha [17]: 100%
- activity at 1000 g/ha [18]: 100%

Compound: CCCCN1Cc2c(-n3c(=O)cc(C(F)(F)F)n(C)c3=O)ccc(Cl)c2C1=O [Compound 11]
- activity at 1000 g/ha [1]: 95%
- activity at 1000 g/ha [2]: 100%
- activity at 1000 g/ha [3]: 100%
- activity at 1000 g/ha [4]: 100%
- activity at 1000 g/ha [5]: 80%
- activity at 1000 g/ha [6]: 100%
- activity at 1000 g/ha [7]: 95%
- activity at 1000 g/ha [8]: 100%
- activity at 1000 g/ha [9]: 100%
- activity at 1000 g/ha [10]: 100%
- activity at 1000 g/ha [11]: 100%
- activity at 1000 g/ha [12]: 100%
- activity at 1000 g/ha [13]: 90%
- activity at 1000 g/ha [14]: 100%
- activity at 1000 g/ha [15]: 100%
- activity at 1000 g/ha [16]: 100%
- activity at 1000 g/ha [17]: 100%
- activity at 1000 g/ha [18]: 100%

Compound: Cn1c(C(F)(F)F)cc(=O)n(-c2ccc(Cl)c3c2CNC3=O)c1=O [Compound 12]
- activity at 1000 g/ha [1]: 75%
- activity at 1000 g/ha [2]: 100%
- activity at 1000 g/ha [3]: 95%
- activity at 1000 g/ha [4]: 100%
- activity at 1000 g/ha [5]: 70%
- activity at 1000 g/ha [6]: 100%
- activity at 1000 g/ha [7]: 95%
- activity at 1000 g/ha [8]: 100%
- activity at 1000 g/ha [9]: 100%
- activity at 1000 g/ha [10]: 100%
- activity at 1000 g/ha [11]: 70%
- activity at 1000 g/ha [12]: 100%
- activity at 1000 g/ha [13]: 60%
- activity at 1000 g/ha [14]: 100%
- activity at 1000 g/ha [15]: 100%
- activity at 1000 g/ha [16]: 100%
- activity at 1000 g/ha [17]: 100%
- activity at 1000 g/ha [18]: 100%

Source: US6277847A, “Herbicidal isoindolinonyl-and 3,4-dihydroisoquinolonyl-substituted heterocycles” (FMC Corporation, priority 2000, dated 2001)
